Entries after “also recorded” stand apart in the source; their conditions may differ.
Key:
Format in all cases: cell-based, human
HMLEshEcad cells [1] = test: High-throughput chemical screen for selective toxicity, HMLEshEcad vs HMLEshCntrl (ATP luminescence viability); settings: for most compounds 10 uM, 3 days, duplicate
Protocol: We screened compounds for cytotoxicity against both HMLEshEcad and control HMLEshCntrl cells. Cells were seeded in 384-well plates, allowed to grow for one day, treated with compound and assayed for cell viability after three days using a luminescence assay; compounds were screened in duplicate for each cell line (FIG. 3A; See Example 3). We screened a collection of ˜16,000 compounds, including many with known bioactivity, natural extracts, modulators of histone deacetylases, and several diverse commercial libraries.
We developed conditions to use an ATP-based luminescence viability assay with 384-well plates in high throughput screening (see Example 3 for Methods). We screened a total of 16,000 compounds as part of our screen. […]
Using the measurements from the plate-normalized DMSO control wells, we constructed the distribution of luminescence intensities for each cell line in the absence of compound (FIG. 3A). […]
Information about the general automated HTS protocol is available online at broad.harvard.edu/chembio/index.html. […] For most compounds the final concentration in each well was calculated to be 10 uM.
The screen was performed in duplicate. […] The luminescent signal from each plate was detected using an automated plate reader (Perkin-Elmer Envision 1; Wellesley, Mass.). […]

HMLEshEcad cells [2] = test: Dose-response viability of HMLEshCntrl vs HMLEshEcad cells (validation of hits, 384-well, Cell-Titer-Glo); settings: FIG. 4A; for selective toxicity towards HMLEshEcad cells relative to HMLEshCntrl cells: dose response on retesting
Protocol: (§1) FIG. 4A depicts dose response curves of HMLEshCntrl (A, light gray curve) and HMLEshEcad (A, dark gray curve) cells treated with the 8 compounds identified during the initial screen. 1000 cells of each line were seeded onto 384 well plates and treated with 8 different concentrations of compounds within a 2.5 log range. The cell viability after 3 day treatment was measured by Cell-Titer-Glo. […] FIG. 4B depicts dose response curves of HMLEshCntrl (curve with square data points) and HMLE-Twist (curve with triangular data points) cells treated with the same compounds as in (A). Note that selectivity of Salinomycin, Abamectin, Etoposide and Nigericin (Top, Left-to-Right) is retained even though a different method of EMT induction is used. […] 1 Day after seeding DMSO, Salinomycin (1.25 or 5 μM) or Abamectin (0.25 or 1.25 μM) was added at the indicated concentration. As the GFP vector contains a Blasticidin resistance gene, we used Blasticidin treatment as a positive control for the expansion of GFP-expressing control HMLE cells. After 3 day incubation the mix population of cells were analyzed by flow cytometry and the percentage of GFP-positive cells were determined. […] FIG. 4D depicts dose response curves of transformed HMLERshCntrl (light gray line) and HMLERshEcad (dark gray lines) cells treated with Salinomycin and Abamectin. Dotted line denotes the 50% fraction surviving.
We pursued 8 of the 32 compounds for further study and evaluated their effects across a range of doses.
For each of these compounds, we evaluated the effect on cell viability across a series of doses for sibling cell lines either induced into or not induced into EMT.
Information about the general automated HTS protocol is available online at broad.harvard.edu/chembio/index.html. The assay was initiated by plating 40 μL of medium containing 1000 cells/well into white 384-well opaque-bottom plates (Nunc, Rochester, N.Y.) using an automated plate filler (Bio-Tek μFiller; Winsooki, Vt.) and allowing the cells to adhere for 24 hours. 100 nL of compound stock solutions in dmso was transferred from stock plates into the 384-well assay plates using an automated pin-based compound transfer robot (CyBio CyBi-Well vario; Woburn, Mass.). For most compounds the final concentration in each well was calculated to be 10 uM.
The screen was performed in duplicate. For negative controls, entire dmso-treated control plates were employed, in addition to dmso-only control wells that were incorporated into each compound assay plate. The cells were assayed for luciferase activity with the addition 20 ul of CellTiter-Glo Luminescent Cell Viability Assay solution (Promega). The luminescent signal from each plate was detected using an automated plate reader (Perkin-Elmer Envision 1; Wellesley, Mass.).
(§2) Individual compounds were purchased from Sigma and dissolved in DMSO with the exception of nigericin which was dissolved in 100% ethanol. Activity of the compounds were quantified by generating dose-response curves for HMLE-shCntrl, HMLE-shEcad and HMLE-Twist under the same cell density and culture conditions described for the initial screen, using the 384-well plate based system.

HMLE-Twist cells = test: Dose-response viability of HMLEshCntrl vs HMLE-Twist cells; settings: EMT induced by Twist, FIG. 4B
Protocol: as §1, §2

Row | Structure (SMILES) | specific toxicity towards HMLEshEcad (siEcad) line in the primary screen (HMLEshEcad cells [1]) | IC50 fold lower for HMLEshEcad cells vs HMLEshCntrl cells (HMLEshEcad cells [2]; 3 day treatment, 8 concentrations) [fold] | selective toxicity towards HMLEshEcad cells relative to HMLEshCntrl cells (HMLEshEcad cells [2]) | selective toxicity towards HMLEshEcad cells relative to HMLEshCntrl cells (HMLEshEcad cells [2]; listed as Etoposide) | selectivity for HMLE-Twist cells vs HMLEshCntrl; dose-response curves compared with HMLEshEcad (HMLE-Twist cells)
1 | CN(Cc1cnc2nc(N)nc(N)c2n1)c1ccc(C(=O)N[C@@H](CCC(=O)O)C(=O)O)cc1 [methotrexate] | did score positively | – | – | – | –
2 | COc1cc([C@@H]2c3cc4c(cc3[C@@H](O[C@@H]3O[C@@H]5CO[C@@H](C)O[C@H]5[C@H](O)[C@H]3O)[C@H]3COC(=O)[C@H]23)OCO4)cc(OC)c1O [etoposide] | did score positively | ~10 | moderate to strong selectivity; also recorded: strong specificity | selective toxicity | is retained

Source: US20140294729A1, “METHODS FOR IDENTIFICATION AND USE OF AGENTS TARGETING CANCER STEM CELLS” (Whitehead Institute for Biomedical Research, priority 2008, published 2014)
